“And” between values parts separate entries of the source, which are not always exact repeats. Equal entries are not always repeated.
How the values were obtained:
[1] = WST-1 cytotoxicity test, HT-29; assay type: cell-based; details: human, HT-29 cells, 48 h, WST-1, mean ± SD of three experiments, read-out: relative viability (%) compared to untreated control; for viability at 48 h, 10 µM: HT-29, 10 µM; for viability at 48 h, 100 µM: HT-29, 100 µM
Protocol: (§1) In this study, the cytotoxic effects of nine new compounds (2, 3, 4, 5, 6, 7, 8, 9, 10) were tested on 10 human cell lines (nine cancer and one non-cancer cell line). The cell lines were treated with each compound at concentrations of 10 µM and 100 µM for 48 h. The proliferation capacity of the treated cells was determined by WST-1 test and compared against the proliferation rate of the untreated control cells (100%).
(§2) The cell lines Jurkat, MOLT-4, A2780, A549, HT-29, PANC-1, HeLa, MCF-7, SAOS-2, and MRC-5 (all purchased from Sigma Aldrich, Czech Republic) were included in this study. All cell lines were maintained according to the provider’s guidelines, and plated and treated in 96-well plates (500 to 30 × 10^3 cells per well). The tested compounds 2, 3, 4, 5, 6, 7, 8, 9, and 10 were dissolved in 0.1% DMSO and kept in 10 mM stock solutions. Before use, the stock solution was diluted in culture media at ratios of 1:100 and 1:1000. The studied cell lines were treated with the compounds 2, 3, 4, 5, 6, 7, 8, 9, and 10 at concentrations of 10 and 100 µM for 48 h. Control cells were tested in culture media with and without DMSO (0.1%). The cells were also treated with 1 µM doxorubicin as a cytotoxicity control.
(§3) The WST-1 (2-(4-iodophenyl)-3-(4-nitrophenyl)-5-(2,4-disulfophenyl)-2H-tetrazolium, monosodium salt) test (Roche, Mannheim, Germany) was used according to the manufacturer’s protocol to determine cell viability in all 10 cell lines 48 h after treatment with the tested compounds. The cells were analyzed in a Tecan Infinite M200 spectrometer (Tecan Group, Männedorf, Switzerland) at 440 nm.

[2] = system: A549 cells; test: MTT assay, IC50 and MTC; details: for IC50 fold higher than that for compound 2 / MTC (maximum tolerated concentration): A549 cells, MTT; for MTC (maximum tolerated concentration): 24 h of treatment; for IC50: Homo sapiens, A549, 24 h, read-out: IC50 ± SEM
Protocol: In further experiments, MTT (3-(4,5-di-methylthiazol-2-yl)-2,5-diphenyltetrazolium bromide) assay was employed to evaluate the toxicological indexes of the newly synthesized compounds, including IC50 (half-maximal inhibitory concentration) and MTC (maximum tolerated concentration).
IC50 and MTC were determined through MTT assays. The MTT assay was performed according to [35]. In brief, the A549 cell line was plated in 96-well plates (100 µL, 9 × 10^3 cells per well) and incubated overnight. The tested compounds were prepared in phosphate buffer saline (PBS; Sigma–Aldrich) and serially diluted in DMEM (Dulbecco’s Modified Eagle Medium). An untreated control was included as a viability standard in each plate. After 24 h of treatment, the viability of A549 cells was measured at 570 nm. All experiments were performed in triplicate. The GraphPad Prism statistics software v5.04 (GraphPad Software Inc., San Diego, CA, USA) was used to calculate the IC50 values for parameter nonlinear regression. Values are expressed as mean ± SEM.

[3] = WST-1 cytotoxicity test, MRC-5; assay type: cell-based; details: human, MRC-5 cells, 48 h, WST-1, mean ± SD of three experiments, read-out: relative viability (%) compared to untreated control; for viability at 48 h, 10 µM: MRC-5, 10 µM; for viability at 48 h, 100 µM: MRC-5, 100 µM
Protocol: as §1, §2, §3

[4] = system: BALB/c mice; test: Safe use evaluation in vivo (MTD, symptoms, blood biochemistry, histopathology); parameters: key to piloerection / ataxia / prostration / tremor / excitation / saber-like tail / stooping / hyper/hypoventilation / drop of eyelids / lacrimation / convulsion: + (mild); ++ (moderate); +++ (severe); details: for ALP / ALT / AST / Amylase / Creatinine / Glucose / Urea: plasma 48 h after MTD i.p.
From the text: Mild to moderate signs of intoxication could be observed once the MTD (maximum tolerated dose) was reached. In vivo, MTD is described as the highest dose of a given compound that can be administered before showing signs of toxicity (based on the same dose regimen or series) and whose excess would be expected to be fatal, yielding unreliable results. Therefore, a staged approach (including core and intermediate dose levels) has become a suitable strategy in this regard.
The symptoms described in Tables S1 (in Supplementary Materials) and S2 (in Supplementary Materials) diminished spontaneously within 2 h. After observing these symptoms, MTD thresholds were set at 100, 200, 100, 200, 2000, and 650 mg/kg for compounds 4, 5, 6, 7, 8, and 10, respectively. Animals receiving MTD were further examined by necropsy 48 h after administration. Plasma (reflecting biochemical changes in blood), intestine with mesentery (site of administration), and liver and kidney (elimination organs) were collected to evaluate the toxic potential of the tested compounds. For evaluation of the impact of the compounds on organ function, we performed blood biochemistry test 48 h after administration. The test focused on seven important indicators: glucose and amylase for normal function of pancreas, alanine aminotransferase (ALT), aspartate aminotransferase (AST), and alkaline phosphatase (ALP) for the normal function of liver, and urea and creatinine for the normal function of kidneys. […] According to Thoolen et al., focal necrosis can be occasionally seen in untreated rodents and therefore is not pathognomonic of hepatotoxicity, which is consistent with our findings.
Both male and female BALB/c mice (Velaz s r.o., Prague, Czech Republic) with an average weight of 21 ± 0.8 g and 21 ± 0.8 g, respectively, were selected for the safe use evaluation in vivo. The mice were housed in environmentally controlled breeding units (Faculty of Military Health Sciences vivarium; temperature 21 ± 1 °C, 12/12 h light/dark cycle) with access to food (Cerea corp., Pardubice, Czech Republic) and water ad libitum. The acclimatization period of the mice was at least 10 days before each experiment. All experimental procedures and protocols were reviewed and approved by the Ethics Committee of the Faculty of Military Health Sciences in Hradec Kralove, University of Defence in Brno. Compounds 2, 3, 4, 5, 6, 7, 8, 9, and 10 were dissolved in physiological saline solution (B. Braun Melsungen AG, Melsungen, Germany) and injected intraperitoneally (i.p.) into the corresponding mouse groups, which were composed of two males and two females. Several doses were administered to determine the maximum tolerated dose (MTD), which was assessed by close observation for signs of toxicity within the first two hours after administration of the compounds, and then regularly over the following 48 h. The observed symptoms were registered according to the laboratory Animal Science Association UK guidelines (for a detailed description, see [36]. After 48 h, the surviving animals were euthanized with CO2 and evaluated by basic macroscopic necropsy. Venous blood was collected into heparinized tubes (Scanlab Systems, Prague, Czech Republic) and the plasma was separated in a U-320R centrifuge (Boeco, Hamburg, Germany) to further evaluate the toxic potential of the tested compounds. The concentrations of glucose, urea, and creatinine and the levels of alanine aminotransferase (ALT), aspartate aminotransferase (AST), alkaline phosphatase (ALP), and amylase were evaluated in a qualified biochemical laboratory of the University Hospital Hradec Kralove (Hradec Kralove, Czech Republic). Additionally, intestine, liver, and kidney samples were collected for histopathologic examination. […]

[5] = female BALB/c mice, animals 1 and 2
[6] = female mice, at MTD i.p., animals 1 and 2
[7] = male BALB/c mice, animals 1 and 2
[8] = male mice, at MTD i.p., animals 1 and 2

| Compound | viability at 48 h, 10 µM [1] [%] | viability at 48 h, 100 µM [1] [%] | IC50 fold higher than that for compound 2 [2] [fold] | MTC (maximum tolerated concentration) [2] [mM] | IC50 [2] [mM] | viability at 48 h, 10 µM [3] [%] | viability at 48 h, 100 µM [3] [%] | ALT [4, 5] | AST [4, 5] | Amylase [4, 5] | Glucose [4, 5] | Urea [4, 5] [mg/dL] | hyper/hypoventilation [4, 6] | prostration [4, 6] | tremor [4, 6] | ALP [4, 7] | ALT [4, 7] | AST [4, 7] | Amylase [4, 7] | Creatinine [4, 7] | further results |
| --- | --- | --- | --- | --- | --- | --- | --- | --- | --- | --- | --- | --- | --- | --- | --- | --- | --- | --- | --- | --- | --- |
| Cl.Cl.Cl.OCCN1CCN(CC(O)CNc2ccccc2)CC1 (stereo not drawn) [Compound 10, 1-(phenylamino]-3-[4-(2-hydroxyethyl)piperazin-1-yl)propan-2-ol trihydrochloride] | 104 ± 11 | 113 ± 2 | 126.5 | 1.56 | 5.06 ± 0.23 | 102 ± 3 | 102 ± 8 | 27 U/L and 24 U/L | 55 U/L and 56 U/L | 1939 U/L and 1826 U/L | 225 mg/dL and 178 mg/dL | 38 | + | ++ | + | 42 U/L and 61 U/L | 24 U/L and 30 U/L | 58 U/L and 51 U/L | 2212 U/L and 2080 U/L | 34 µg/dL | histopathological change: focal necrosis ([4]; at MTD i.p., necropsy 48 h after administration, one animal each): five small foci; ALP [4, 5]: 67 U/L and 73 U/L; Creatinine [4, 5]: 68 µg/dL and 67 µg/dL; ataxia [4, 6]: +; convulsion [4, 6]: +; excitation [4, 6]: +; weight at 24 h (%) [4, 6]: -1.5% and -5.6%; Glucose [4, 7]: 189 mg/dL and 236 mg/dL; Urea [4, 7]: 47 mg/dL and 43 mg/dL; ataxia [4, 8]: +; excitation [4, 8]: +; hyper/hypoventilation [4, 8]: +; prostration [4, 8]: ++; tremor [4, 8]: + |
| COc1ccc(NCCCN2CCN(CCO)CC2)cc1.Cl.Cl.Cl [Compound 7, 2-(4-(3-((4-methoxyphenyl)amino)propyl)piperazin-1-yl)ethanol trihydrochloride] | 96 ± 3 | 118 ± 2 | 63.8 | 0.39 | 2.55 ± 0.21 | 100 ± 3 | 104 ± 3 | 22 U/L and 33 U/L | 52 U/L and 71 U/L | 2501 U/L and 1496 U/L | 241 mg/dL and 178 mg/dL | 40 | ++ | + | ++ | 78 U/L and 55 U/L | 19 U/L and 29 U/L | 48 U/L and 66 U/L | 2272 U/L and 1858 U/L | 23 µg/dL and 34 µg/dL | drop of eyelids [4, 6]: +; Glucose [4, 7]: 244 mg/dL and 194 mg/dL; Urea [4, 7]: 35 mg/dL and 38 mg/dL; drop of eyelids [4, 8]: +; hyper/hypoventilation [4, 8]: ++; prostration [4, 8]: ++; tremor [4, 8]: ++; weight at 24 h (%) [4, 8]: -0.3% and -1.5%; weight at 48 h (%) [4, 8]: 0.0% and -3.7% |

Reference: paper PMC7038073, “Substituted Piperazines as Novel Potential Radioprotective Agents” (Molecules, 2020)
